Two compounds from patent EP1820502A1, “Active substance combination comprising azolylcarbinol compounds” (LABORATORIOS DEL DR. ESTEVE, S.A., priority 2006, dated 2007) can be followed below.

The structures appear in SMILES notation.

The assay relates to mechanical allodynia/hyperalgesia in rats with unilateral ligatures of the sciatic nerve. Briefly: Randall-Selitto test (pressure thresholds for paw withdrawal and vocalization) in rats with unilateral ligatures of the sciatic nerve. Format: in vivo. As to conditions: two weeks after sciatic nerve ligature, cizolirtine 5 mg/kg i.p., gabapentin 30 mg/kg i.p., or both 5 min apart; for pressure thresholds for triggering vocalization (analgesic effect): Figure 2; for pressure thresholds to trigger paw withdrawal (analgesic effect): ipsilateral right hindpaw, Figure 1. As to the method: Ligatures of the right sciatic nerve were made in pentobarbital (50 mg/kg i.p.)-anesthetized rats according to the classical protocol of Bennett and Xie (1988) which is well known by those skilled in the art. Sham operated animals were subjected to the same surgical procedure except that the nerve was not ligated. Prior to surgery and two weeks afterwards, rats were subjected to the Randall-Selitto test to determine the pressure thresholds for triggering withdrawal of the ipsilateral, right hindpaw and vocalization. Animals were then immediately injected with either cizolirtine (5 mg/kg i.p.), gabapentin (30 mg/kg i.p.) or both drugs. In the latter case, a 5 min interval elapsed between the injection of cizolirtine (1st) and that of gabapentin (2nd). Time 0 on the abscissa (see Figs 1 & 2) corresponded to the second injection. The Randall-Selitto test was then applied for the determination of pressure thresholds at various times up to at least 5 hours thereafter.

As to `NCC1(CC(=O)O)CCCCC1` [Gabapentin, 1-(aminomethyl) cyclohexaneacetic acid], the “pressure thresholds for triggering vocalization (analgesic effect)” value was “decrease the threshold to trigger vocalization” and the “pressure thresholds to trigger paw withdrawal (analgesic effect)” value is on record as “decrease the pressure threshold to trigger paw withdrawal”.

Regarding `CN(C)CCOC(c1ccccc1)c1ccnn1C` (racemic) [Cizolirtine, (±)-N,N-dimethyl-2-((1-methyl-1H-pyrazol-5-yl)(phenyl)methoxy)ethanamine], the “pressure thresholds for triggering vocalization (analgesic effect)” value is on record as “decrease the threshold to trigger vocalization” and the “pressure thresholds to trigger paw withdrawal (analgesic effect)” value is “decrease the pressure threshold to trigger paw withdrawal”.
